The source of these data is article PMC10755004, “Pyrimidine salvage in Toxoplasma gondii as a target for new treatment” (Frontiers in Cellular and Infection Microbiology, 2023).

Broadly, the EC50 is the midpoint of the concentration-response curve. By inhibition is commonly meant the drop in the measured response relative to a control, in per cent. Low readings indicate a weak effect, high ones a strong effect. Usually Ki stands for a measure of affinity in units of concentration, obtained from inhibition or displacement. Low values mean a stronger hold on the target, high ones a looser hold on the target. For orientation: Km means the substrate concentration at which the rate is half of its maximum.

Each structure is given as a SMILES string. Values joined by “and” are separate entries in the source; they are usually repeats but may differ in a detail not shown here. Identical values can stand only once. Like-named read-outs stand apart in the source and are kept apart here.

For one assay, the system named is T. gondii tachyzoites. The assay is described as follows: Uptake of tritiated pyrimidines by T. gondii tachyzoites over time. Format: cell-based, Toxoplasma gondii.
In assay [1] the test system is T. gondii intracellular tachyzoites. The assay is described as follows: Drug sensitivity assay for T. gondii tachyzoites in HFF cells (RFP fluorescence, 6 days). The class given is cell-based, Toxoplasma gondii. The conditions noted are these: for EC50: intracellular tachyzoites in HFF, 6 days; for in vitro activity compared with sulfadiazine (in words): EC50 against T. gondii vs sulfadiazine; for effect on intracellular tachyzoites: concentrations up to 25 µM. The method, then: The in vitro inhibitory effects of antimicrobial nucleoside agents on T. gondii growth were determined in HFF cell cultures using 96-well black plates (Optical-Bottom Plates with Polymer Base, Thermo Fisher Scientific). 150 – 200 µL of HFF cells were seeded into 96-well black plates and incubated for 3-5 days at 37°C under 5% CO2 in a humidified incubator. Once the HFF cells became confluent the supernatant was discarded and replaced with 100 µL fresh DMEMc media. Sulfadiazine (positive control) and the nucleoside compounds were already dissolved in DMSO at known concentrations, usually prepared as 10 mM. After that, every compound was diluted in DMEMc at 4x final concentration. The assays were performed in duplicate or triplicate throughout. 100 µL of 4x compounds were transferred to the wells of the first column of a 96-well black plate of which each well contained HFF cells in 100 µL DMEMc. The compounds were mixed, and 100 µL was transferred using the multichannel pipette to the next column before being transferred to each column through the entire plate over one row, leaving the last column as a negative control without drug. After that, naturally, freshly egressed parasites were collected and filtered through a 3-µm filter (Sigma-Aldrich). ~1000 parasites/well were added in 100 µL DMEMc (giving a total volume of 200 µL/well) and incubated for 6 days at a 37°C/5% CO2 in a humidified incubator. On day 6, a PHERAstar plate reader (BMG Labtech, Germany) was used to read the fluorescence intensity at 540 nm for excitation and 590 nm for emission. The EC50 values and fluorescence data were determined and plotted by using Prism 8.0 (GraphPad). Each experiment was independently performed 3-5 times.
Most published protocols for in vitro drug screening against T. gondii use the MTT assay, which is a colorimetric assay that relies on tetrazolium salt and is used for accessing cell viability, cell proliferation and cytotoxicity for the host cells ([Jin et al., 2012]). Our protocol is an adaptation from a method that was used to evaluate antiretroviral compounds against T. gondii tachyzoites ([Wang et al., 2019]). These authors added 5×10^4 cells/mL freshly egressed tachyzoites to each well of a 96-well plate with an HFF cell monolayer, followed by incubation for 4 h to allow the cells to invade the host cells; the medium containing extracellular tachyzoites was then removed and fresh medium containing the desired concentration of the antiretroviral drugs was added to the wells and incubated for 5 days at 37°C and 5% CO2 in a humidified incubator ([Wang et al., 2019]). In our adaptation of this protocol, we aimed to eliminate the step of wash/removal of tachyzoites, in order to increase reproducibility. We thus prepared the serial dilutions of compounds in the 96-well plates containing the HFF monolayer cells and then added the lower number of 1×10^4 cells/mL freshly lysed tachyzoites to the 96-well plates, already containing both the HFF monolayer cells and tested compounds. The plates were then incubated for 6 days at 37°C and 5% CO2 in a humidified incubator. A major advantage that was introduced was detection of T. gondii in the wells, which was achieved by measuring fluorescence of the RFP-expressing parasites.

The test system of assay [2] is T. gondii. The assay is described as follows: Mouse model of acute toxoplasmosis, parasite burden in lung by qPCR. Format: in vivo, C57BL/6J mice. The conditions noted are these: pyrimidines 25 mg/kg i.p., sulfadiazine oral in water, lung parasite burden day 10. (In qPCR the cycle at which signal appears reflects the starting amount.)
Assay [3] concerns HFF cells. The settings on record: for S.I.: selectivity index, HFF cytocidal EC50/tachyzoite EC50; for EC50: read-out: HFF ctotoxicity EC50 Cytostatic, uninfected HFF, 6 days.
Assay [4] concerns HFF cells. Put plainly: cells. The settings on record: Homo sapiens, 144 h.
In assay [5] the target is uridine/uracil transporter 1 (TgUUT1). Put plainly: Transport of 0.1 µM [3H]-uracil into extracellular T. gondii tachyzoites (oil-stop technique). The conditions noted are these: for Ki: inhibition of 0.1 µM [3H]-uracil transport. The class given is cell-based, Toxoplasma gondii.
Assay [6] relates to uridine/uracil transporter 1 (TgUUT1). The assay is described as follows: Transport of 0.1 µM [3H]-uridine into extracellular T. gondii tachyzoites (oil-stop technique). The conditions noted are these: for inhibition of [3H]-uridine uptake: 0.1 µM [3H]-uridine, 5 min; for Km: 0.1 µM label, tachyzoites, n=3; for Gibbs free energy of binding: from Km/Ki on [3H]-uridine transport; for Ki: inhibition of 0.1 µM [3H]-uridine transport; for δ(ΔG^0): loss of binding energy compared with uridine. Format: cell-based, Toxoplasma gondii.

Another assay deals with TgAT1. Also noted: method as in Chiang et al., 1999. The settings on record: TgAT1 expressed in X. laevis oocytes; ref Chiang et al., 1999; cited from earlier work.
In assay [7] the test system is T. gondii. Details: method as in el Kouni et al., 1999. The conditions noted are these: ref el Kouni et al., 1999; read-out: EC50 against T. gondii; cited from earlier work.
Where [8] appears, read: read-out: HFF ctotoxicity EC50 Cytostatic.
The mark [9] stands for this setting: read-out: HFF ctotoxicity EC50 Cytostatic (second column).

Regarding `Nc1ccn([C@@H]2O[C@H](CO)[C@@H](O)[C@H]2O)c(=O)n1` [Cytidine], the Rate of uptake in the assay with T. gondii tachyzoites (0.20 µM radiolabel) was 0.0029 ± 0.0004 pmol(10^7 cells)^-1min^-1; in the assay with T. gondii tachyzoites (0.20 µM radiolabel, listed as [^3H]-cytidine), 0.0029 pmol(10^7 cells)^-1min^-1.

`Nc1ncnc2c1ncn2[C@@H]1O[C@H](CO)[C@@H](O)[C@@H]1O` [Ara-A, adenine arabinoside] had an EC50 in assay [1] of 11.4 ± 1.8 µM.

For `Nc1ccc(S(=O)(=O)Nc2ncccn2)cc1` [Sulfadiazine], it took 12.4 ± 1.08 µM to reach a half-maximal effect in assay [1] (Toxoplasma gondii, 144 h) (EC50).

For the compound `O=c1[nH]c(=O)n([C@H]2C[C@H](O)[C@@H](CO)O2)cc1F` [5-F,2’dUrd, 5-fluoro-2’deoxyuridine], the “in vitro activity compared with sulfadiazine (in words)” value in assay [1] is “well below”. The EC50 in assay [1] (Toxoplasma gondii, 144 h) is 0.67 ± 0.07 µM; with HFF cells [4] (setting [8]) it was 0.19 ± 0.05 µM; in the assay with HFF cells [4] (setting [9]) it was 1480 ± 510 µM. Also, the “efficacy against acute toxoplasmosis, comparison between treatments” value is listed as “significantly less effective” in the assay on T. gondii [2] and “similarly effective as sulfadiazine” in the assay with T. gondii [2] (listed as 5F,2’-deoxyuridine). The S.I. with HFF cells [3] is recorded as 2205.

For the compound `O=c1ccn([C@@H]2O[C@H](CO)[C@@H](O)[C@H]2O)c(=O)[nH]1` [Uridine], the Rate of uptake in the assay with T. gondii tachyzoites (0.10 µM radiolabel) is 0.011 ± 0.0006 pmol(10^7 cells)^-1min^-1. Moreover, the “inhibition of [3H]-cytidine uptake” value in the assay with T. gondii tachyzoites (0.2 µM [3H]-cytidine, 1 mM unlabeled inhibitor) is “fully inhibited”. In addition, in the assay with T. gondii tachyzoites (0.25 µM [3H]-thymidine, 250 µM inhibitor), the “inhibition of [3H]-thymidine uptake” value is recorded as “did not inhibit”. Moreover, testing at 250 µM with T. gondii tachyzoites (Toxoplasma gondii, [3H]-cytidine, 250 µM inhibitor) gave an inhibition of 100%. Also, in [5], the affinity, expressed as Ki, was 2.44 ± 0.59 µM. Also, the “inhibition of [3H]-uridine uptake” value in assay [6] (1 mM unlabeled inhibitor) is 90%. In addition, the Vmax in [6] ([3H]-uridine as substrate) is 1.21 ± 0.24 pmol(10^7 cells)^-1 min^-1. For the same compound, the Michaelis constant (Km) was 3.34 ± 0.82 µM in [6] ([3H]-uridine as substrate, listed as [^3H]-uridine) and 3.3 ± 0.8 µM in assay [6] ([3H]-uridine as substrate, listed as uridine). The “Gibbs free energy of binding” value in assay [6] is -7.46 kcal/mol.

`Cc1cn([C@H]2CC[C@@H](CO)O2)c(=O)[nH]c1=O` [3’-deoxythymidine]: in [1], the “effect on intracellular tachyzoites” value is “no effect”.

Regarding `Cc1cn([C@H]2C[C@H](O)[C@@H](CO)O2)c(=O)[nH]c1=O` [Thymidine], in the assay on T. gondii tachyzoites (0.25 µM [3H]-thymidine over 10 min, 1 mM unlabeled inhibitor), the “inhibition of [3H]-thymidine uptake” value is “did not significantly inhibit”. Moreover, the Rate of uptake in the assay with T. gondii tachyzoites (0.25 µM radiolabel, over 10 min) was 0.00071 ± 0.00016 pmol(10^7 cells)^-1min^-1. Besides, the “inhibition of [3H]-uridine uptake” value in assay [6] (250 µM inhibitor) is on record as “somewhat inhibited”. In [6], the “Gibbs free energy of binding” value was -4.09 kcal/mol; the inhibition constant Ki stood at 1010 ± 145 µM; the “δ(ΔG^0)” value was 3.37 kcal/mol and 3.39 kcal/mol.

`O=c1ccn([C@H]2CC[C@@H](CO)O2)c(=O)[nH]1` [2’,3’-dideoxyuridine]: the “effect on intracellular tachyzoites” value in [1] was “no effect”.

In the case of `Nc1ncnc2c1ncn2[C@@H]1O[C@H](CO)[C@@H](O)[C@H]1O` [Adenosine], the “inhibition of TgUUT1 uridine uptake” value in [6] (2500-fold excess of unlabeled inhibitor) was ~ 70%. The same compound showed a Ki in assay [6] of 112 ± 6 µM. For the same compound, the Km with TgAT1 is 114 µM.

Regarding `O=c1cc[nH]c(=O)[nH]1` [Uracil], the Rate of uptake in the assay on T. gondii tachyzoites (0.10 µM radiolabel) is reported as 0.026 ± 0.0014 pmol(10^7 cells)^-1min^-1; in the assay on T. gondii tachyzoites (0.10 µM radiolabel, listed as [^3H]-uracil), 0.026 pmol(10^7 cells)^-1min^-1. The Vmax in [5] ([3H]-uracil as substrate) is recorded as 0.166 pmol(10^7 cells)^-1 min^-1. For the same compound, in assay [5] ([3H]-uracil as substrate, 0.1 µM label, tachyzoites, n=3), the Km was 2.05 ± 0.4 µM. Besides, the “inhibition of [3H]-uridine uptake” value in assay [6] (250 µM inhibitor) was 80%. In [6], this compound returned a Ki of 1.15 ± 0.07 µM.

With `O=c1[nH]cc(F)c(=O)[nH]1` [5-FU, 5-fluorouracil], the “in vitro activity compared with sulfadiazine (in words)” value in assay [1] was “well below”. Further, the EC50 came to 1.13 ± 0.16 µM in [1] (Toxoplasma gondii, 144 h); 2.49 ± 0.43 µM in the assay on HFF cells [4] (setting [8]); 3070 ± 340 µM with HFF cells [4] (setting [9]). Further, in [5] (5-FU Ki compared to uracil Km), the “δ(ΔG^0)” value came out at 0.717 kcal/mol. For the same compound, the Ki in assay [5] was determined as 6.8 ± 2.12 µM; in [6], 5.24 ± 0.72 µM. Also, the “efficacy against acute toxoplasmosis, comparison between treatments” value was “not significantly different from sulfadiazine” in the assay with T. gondii [2] and “similarly effective as sulfadiazine” in the assay with T. gondii [2] (listed as 5F-uracil). This compound registered a S.I. with HFF cells [3] of 2720.

Compound `Cc1cn([C@@H]2O[C@H](CO)[C@@H](O)[C@H]2O)c(=O)[nH]c1=O` [5-Methyluridine] gave an inhibition constant (Ki) in [6] of 2380 ± 774 µM.

In the case of `O=c1ccn([C@H]2C[C@H](O)[C@@H](CO)O2)c(=O)[nH]1` [2’-Deoxyuridine], in [1], the “effect on intracellular tachyzoites” value is recorded as “no effect”. Also, in assay [6], the affinity, expressed as Ki, was 134 ± 31 µM; the “δ(ΔG^0)” value is 2.15 kcal/mol and 2.17 kcal/mol.

Regarding `O=c1[nH]cnc2c1ncn2[C@@H]1O[C@H](CO)[C@@H](O)[C@H]1O` [Inosine], in assay [6], the inhibition constant (Ki) amounted to 28.2 ± 4.1 µM.

`O=c1[nH]c(=O)n([C@@H]2O[C@H](CO)[C@@H](O)[C@H]2O)cc1F` [5-FUrd, 5-Flourouridine]: in assay [1], the “in vitro activity compared with sulfadiazine (in words)” value is listed as “well below”. Besides, the EC50 in [1] was 0.45 ± 0.02 µM; with HFF cells [3] (first (low concentration) phase, growth inhibition), 0.11 ± 0.1 µM; in the assay on HFF cells [3] (second phase (cytocidal per footnote and text)), 20.4 ± 1 µM. The S.I. in the assay with HFF cells [3] is 45.

On to `C[C@H]1O[C@@H](n2ccc(=O)[nH]c2=O)[C@H](O)[C@@H]1O` [5’-deoxyuridine], for which the “effect on intracellular tachyzoites” value in assay [1] is “no effect”.

In assay [1] (Toxoplasma gondii, 144 h), `CCc1nc(N)nc(N)c1-c1ccc(Cl)cc1` [Pyrimethamine] yielded an EC50 of 16.2 µM.

Take `O=[N+]([O-])c1ccc(CSc2ncnc3c2ncn3[C@@H]2O[C@H](CO)[C@@H](O)[C@H]2O)cc1` [NBMPR]: the EC50 in assay [1] is 3.19 ± 0.14 µM; in the assay with T. gondii [7] it was 10.2 µM.
